Active and inactive are the calls of the source.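 Rule for the calls: active = compounds giving half or more protection of infected cells from virus-caused growth loss, again on retest; inactive = the rest.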
System: CEM cells HIV-1 protection, formazan growth assay
Experiment: NCI AIDS Antiviral Assay
Conditions: for IC50: measured here: growth of uninfected CEM cells
In short: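 CEM (human) cells, HIV-1 infected vs uninfected, 5-point dosing, formazan growth read-out. Retest threshold 50% protection.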

Structure (SMILES) | outcome | EC50 [µM] | IC50 [µM]
N#CNc1nc(N)c(-c2ccc(Cl)cc2)c(C(=O)Nc2ccc(Cl)c(Cl)c2)n1 | inactive |  | 
O=C(O)c1cc2ccccc2c(=O)s1 |  | > 331 | > 331
O=C(N/N=C/c1cccc2ccccc12)c1cccnc1 |  | > 200 | 112
Cl[Si]1(Cl)Oc2ccccc2O[Si](Cl)(Cl)Oc2ccccc2O1 |  | > 12.6 | > 12.6
CCC(=O)N/N=C(\C=C\c1cccc(O)c1)c1sc(Nc2ccc(C)cc2[N+](=O)[O-])nc1C |  | > 77.6 | > 77.6
CCCCCCCCCCCCCC(=O)OCC(C[As](=O)(O)O)OC(=O)CCCCCCCCCCCCC (stereo not drawn) |  | > 11.5 | > 11.5
O=c1[nH]c2ccccc2c(O)c1N=Nc1cccc(C(F)(F)F)c1 |  | > 200 | > 200
Cn1c2ccccc2n2c3ccccc3c(=S)c(C#N)c12 |  | > 100 | > 100
CCCCCCCCCCCCCCC(C(=O)O)S(=O)(=O)O (stereo not drawn) |  | > 200 | 155
Cc1ccnc2c1C(=O)C(=O)C=C2N1CCCCC1 | inactive |  | 
COc1cc2c(cc1O)CC[C@@H]1C2CC[C@@]2(C)C1CC[C@@H]2O (stereo partly drawn) |  | > 2 | 0.331
N[C@@H](Cc1ccc(O)c(O)c1)C(=O)O |  | > 200 | 51.3
CCn1c(N)c(N=O)c(=O)[nH]c1=O |  | > 200 | > 200
Cc1cccc2c(N)c3cccc(C(=O)NCCCNCCN)c3nc12 |  | > 0.2 | 0.12
O=C(NC1C2CC3CC(C2)CC1C3)c1ccncn1 (stereo not drawn) |  | > 513 | > 513
S=C(Nc1ccccn1)Nc1ccccc1Cl |  | > 200 | 123
CC(C)(O)CCC(O)[C@](C)(O)C1CCC2(O)C3=CC(=O)[C@@H]4C[C@@H](O)[C@@H](O)C[C@]4(C)C3CC[C@]12C (stereo partly drawn) | inactive |  | 
Clc1ccc(CN2CCCN(Cc3ccc(Cl)c(Cl)c3)S2)cc1Cl |  | > 61.7 | > 61.7
COc1ccc2c(=O)c(-c3ccc(OC)c(OC)c3OCc3ccccc3)coc2c1 |  | > 200 | 69.2
CN1N=C(c2ccncc2)OC1c1cccc(F)c1 (stereo not drawn) |  | > 200 | 79.4
CC(C)Oc1cc2c(c3oc(=O)c4c(c13)CCC4)C(=O)[C@H](C)[C@@H](C)O2 |  | > 200 | 39.8
COC(OC)[C@@H](C)[C@H](O)[C@](C)(O)C1OC(C)(C)OC(C(C)C=C(C)C)C1C (stereo partly drawn) | inactive |  | 

Structure (SMILES) | outcome | EC50 [µM] | IC50 [µM]
CC1=[N+]([O-])C2(CCCC2)N(O)C1(C)C |  | > 200 | > 200
Cc1cn(C2CC(N=[N+]=[N-])C(COC(=O)CCCCCCCCCCCI)O2)c(=O)[nH]c1=O (stereo not drawn) |  | 0.049 | 102
CC/C=C\C/C=C\C/C=C\C/C=C\CCC(=O)OC(COC(=O)CCCCCCC/C=C\C/C=C\C/C=C\CC)COC1OC(CO)C(O)C(O)C1O (stereo not drawn) |  | > 38 | > 38
O=C1CNCCCN2CCN(CCCNCC(=O)Nc3ccc(cc3)S(=O)(=O)c3ccc(cc3)NC(=O)CNCCCN3CCN(CCCNCC(=O)Nc4ccc(cc4)S(=O)(=O)c4ccc(cc4)N1)CC3)CC2 |  | > 50.1 | > 50.1
CC(=O)C(=Cc1ccc(O)cc1)C(C)=O |  | > 1230 | 75.9
CC(C)(C)OC(=O)NCC(O)CNC(=O)OC(C)(C)C |  | > 871 | > 871
CCCCC(=O)Oc1c(Cl)cc(C(=CCC[C@H]2CC[C@@]3(C)[C@@H](CC[C@@H]4[C@@H]3CC[C@]3(C)[C@@H](C(C)CCCC(C)C)CC[C@@H]43)C2)c2cc(Cl)c(OC(=O)CCCC)c(C(=O)O)c2)cc1C(=O)O (stereo partly drawn) |  | 74.1 | > 100
CN(CCN(C)C(=O)CCn1cc(F)c(=O)[nH]c1=O)C(=O)CCn1cc(F)c(=O)[nH]c1=O |  | > 57.5 | > 57.5
N#Cc1c(N)c2c(c(-c3ccccc3)c1-c1ccccc1)C(=O)N(O)C2=O |  | > 200 | 44.7
CCOC(=O)CC(=Nc1cc(C)on1)N(CC)CC |  | > 676 | > 676
CCCCCCCCCCCC(=O)OCC1OC(n2cc(F)c(=O)[nH]c2=O)C(NC(=O)OCc2ccccc2)C(OC(=O)CCCCCCCCCCC)C1O (stereo not drawn) |  | > 6.61 | > 6.61
CCOc1ccc(/C=C(\Cl)c2ccc(OC)c(OC)c2)cc1 |  | > 200 | 191
O=C(CCCC[n+]1ccccc1)Sc1ccccc1C(=O)Nc1ccc(S(=O)(=O)Nc2nccs2)cc1 |  | 13.5 | 91.2
C(=C1\CCC/C(=C/c2ccccc2)C1=NNc1ccccc1)/c1ccccc1 |  | > 14.5 | > 14.5
COC1=NS(=O)(=O)C(C)C(C)(C)O1 (stereo not drawn) |  | > 427 | > 427
N/N=c1\c2ccccc2c2cc3c(cc12)/c(=N/N)c1ccccc13 |  | > 17 | > 17
O=S(Cc1ccccc1)/C(=C/NC(=S)Nc1cc(Cl)ccc1Cl)c1ccccc1 (stereo not drawn) |  | > 200 | > 200
CCCc1cc(=O)oc2c3c(c4c(c12)OC(C)(C)CC4)O[C@H](C)C(C)C3=O (stereo partly drawn) |  | 12.3 | 186
O=C(NCCO)c1c(CNC2CCCCC2)n([O-])c2ccccc2[n+]1=O |  | > 501 | > 501
COC(=O)C1=C(c2ccc(Cl)cc2)C(O)N=C(NN)N1 (stereo not drawn) |  | > 832 | > 832
C=C1C(=O)O[C@H]2C[C@@]3(COC(C)=O)C=COC=C(COC(=O)C(C)C)C3CC12 (stereo partly drawn) |  | > 200 | 30.9
COc1ccc(C(=O)O)c(Cc2cccc3ccccc23)c1 | inactive |  | 

Structure (SMILES) | outcome | EC50 [µM] | IC50 [µM]
COc1cc(N=Nc2ccccc2C(=O)[O-])cc(/C=N/NC(=S)Nc2ccc(C)cc2)c1[O-].[Cu+].[Cu+] | inactive |  | 
O=[N+]([O-])C(Cl)C(Cl)c1ccc(Cl)cc1 (stereo not drawn) |  | > 200 | 7.41
COc1cc2c(c(OC)c1OC)-c1ccc(SC)c(=O)cc1C(NC=O)CC2 (stereo not drawn) |  | > 0.002 | 0.0011
BrC1=C(Br)C2(SCCS2)[C@H]2C[C@@H]1c1ccccc12 |  | > 200 | 8.71
COC(=O)C12C3C4C1C1C2C3C41C(=O)N(C(C)C)C(C)C (stereo not drawn) |  | > 871 | > 871
O=c1[nH]n(-c2ccccc2)c(=O)cc1Cl |  | > 85.1 | > 85.1
Cc1c(O)c2cccc(-c3ccccc3)c2oc1=O |  | > 200 | 132
O=C(Nc1ccc(Cl)c(Cl)c1)C(=O)Nn1c(=S)[nH]c2ccccc2c1=O |  | > 437 | 257
O=CCOCc1cc2c(cc1Br)OCO2 |  | > 200 | 5.25
O=[N+]([O-])C(Cl)=C/C(=C(\Cl)SCc1ccccc1)[N+](=O)[O-] |  | > 200 | 12
CCN(CC)C(=O)c1cccc2cccc(OC)c12 | inactive |  | 
Brc1ccc(CCc2ncc[nH]2)cc1 |  | > 282 | 174
N#CC(C(=O)C(=O)Nc1ccc(Cl)c(Cl)c1)c1ccc(Cl)cc1 (stereo not drawn) |  | > 135 | 107
CN(C)C(=O)Sc1nnc(C(C)(C)C)o1 |  | > 200 | > 100
CSC1=NC(=O)CCN1C1OCC(OC(C)=O)C(OC(C)=O)C1OC(C)=O (stereo not drawn) |  | > 200 | 105
Cn1c(=O)c2nc(-c3cccnc3)cnc2n(C)c1=O |  | > 200 | > 200
O=[N+]([O-])c1ccc2c(c1)Sc1ccccc1N2 |  | > 200 | 60.3
O=C1N=C(C=c2ccc(=Cc3[nH]c(=O)[nH]c3O)cc2)C(=O)N1 |  | 132 | > 200
C=C(C)CC(OC(=O)C(C)(C)C)c1ccccc1 (stereo not drawn) | inactive |  | 
CC1=C(C#N)S(=O)(=O)c2c(oc(C)c2C)N1 |  | > 200 | > 200
Cc1cc(NS(=O)(=O)c2ccc(Nc3c4ccccc4nc4c(C(=O)Nc5ccc(S(=O)(=O)N=C(N)N)cc5)ccc(Cl)c34)cc2)no1 |  | > 51.3 | > 51.3
CCOP(=O)(OCC)C(c1ccc(F)cc1)N(C(=O)NC(F)(F)F)c1ccc(OC)cc1 (stereo not drawn) |  | > 200 | > 200

Structure (SMILES) | outcome | EC50 [µM] | IC50 [µM]
COC(=O)c1cn2ccc3ccccc3c2c1C(=O)OC |  | > 200 | > 100
COc1ccc(Br)c(C(=O)N2CCc3ccccc32)c1N | inactive |  | 
O=C(CC(=O)c1ccccc1O)c1ccccc1 |  | > 30.2 | > 30.2
COc1cc(Nc2cnc3cc(F)c(F)cc3n2)cc(OC)c1OC |  | > 200 | > 200
CN(C)CC1CCC(CN(C)C)C(=O)C1=O (stereo not drawn) |  | > 200 | 0.49
CCCCN=C(NC#N)NCCCC |  | > 457 | 224
C[C@]12CC[C@@H]3c4cc(I)c(O)cc4CC[C@H]3[C@@H]1CC[C@@H]2O |  | > 200 | 2.09
CCc1ccccc1NC(=O)/C(N=O)=C(/C)O |  | > 151 | > 151
C[C@H](NC(=O)c1ccccc1SC(=O)NCCCCl)C(N)=O |  | 3.63 | 44.7
O=C(O)COc1ccc(C(=O)/C(SS/C(C(=O)c2ccc(OCC(=O)O)c(Cl)c2Cl)=C2\C=C(c3ccccc3Cl)SS2)=C2/C=C(c3ccccc3Cl)SS2)c(Cl)c1Cl |  | > 35.5 | > 35.5
S=C(S)N1CCN(c2ccccc2)CC1 |  | > 200 | > 200
C=C(C)[C@@H]1CC=C2[C@H](O)CC(O)C(C)[C@@]2(C)C1 (stereo partly drawn) |  | > 209 | 51.3
COC(=O)[C@H](Cc1ccccc1)NC(=O)NCCN(CCNC(=O)N[C@@H](Cc1ccccc1)C(=O)OC)C(=O)N[C@@H](Cc1ccccc1)C(=O)OC |  | > 200 | 33.9
NNC(=O)c1ccc(-n2nnc(C(=O)NN)c2C(=O)NN)cc1 |  | > 501 | > 501
O=C1C(=O)c2ccccc2C(O)=C1C(C1=C(O)c2ccccc2C(=O)C1=O)c1ccc(Cl)c(Cl)c1 |  | > 200 | 18.6
CC1(C)O[C@@H]([C@@H](O)[C@H](O)C2SCCCS2)[C@@H](CO)O1 |  | > 200 | > 200
O=C1c2ccccc2S(=O)(=O)c2c1cccc2[N+](=O)[O-] |  | > 200 | 0.851
O=[N+]([O-])c1ccc(SSc2ccc([N+](=O)[O-])cn2)nc1 |  | > 200 | 9.12
CCC[CH2][Sn]1([CH2]CCC)[S]CC[N]1S(=O)(=O)c1ccc(C)cc1 |  | > 200 | 0.0776
CCN(CC)CCN1C(=O)c2cccc3cc(OC)cc(c23)C1=O |  | > 200 | 3.47
